Assay results as given in patent US9221868B2, “Uridine di- or tri-phosphate derivatives and uses thereof” (BAR-ILAN UNIVERSITY, priority 2010, dated 2015).
Entries after “also recorded” stand apart in the source; their conditions may differ. Like-named read-outs stand apart in the source and are kept apart here.

Experiments:
P2Y6-R = target: T1, P2Y6-R (Homo sapiens, UniProt Q15077); experiment: [Ca2+]i increase in 1321N1 astrocytoma cells expressing P2Y6-R; assay type: cell-based; settings: for EC50: 1321N1 astrocytoma cells, [Ca2+]i, read-out: Potencies (EC50) at the P2Y6-R; for Activity at the P2Y6-R (in words): 1321N1 cells
T1 construct: expressed in transfected cells; host or cells: 1321N1 astrocytoma cells
T1 sequence (Q15077 whole entry): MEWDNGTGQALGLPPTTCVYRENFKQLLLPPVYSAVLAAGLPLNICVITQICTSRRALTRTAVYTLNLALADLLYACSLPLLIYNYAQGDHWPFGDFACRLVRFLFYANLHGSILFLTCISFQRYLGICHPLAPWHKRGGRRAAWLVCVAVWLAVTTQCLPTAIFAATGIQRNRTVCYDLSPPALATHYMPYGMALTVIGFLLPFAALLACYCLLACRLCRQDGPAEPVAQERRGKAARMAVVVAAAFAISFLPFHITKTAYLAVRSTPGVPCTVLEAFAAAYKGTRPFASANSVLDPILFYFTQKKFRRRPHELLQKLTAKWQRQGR
Protocol: (§1) Green fluorescent protein (GFP) constructs of human P2Y2-R, P2Y4-R and P2Y6-R were expressed in 1321N1 astrocytoma cells, which lack endogenous expression of P2X- and P2Y-receptors. The respective cDNA of the receptor gene was cloned into a pEGFPN1 vector. After transfection using FuGENE 6 Transfection Reagent (Roche Molecular Biochemicals, Mannheim, Germany), the cells were selected with 0.5 mg/ml G418 (geneticine; Merck Chemicals, Darmstadt, Germany) and grown in Dulbecco's modified Eagles' medium (DMEM) supplemented with 10% fetal calf serum, 100 U/ml penicillin and […] at 37° C. and 5% CO2. The expression and cell membrane localization of the respective P2Y receptors was confirmed through the analysis of the GFP fluorescence. The functionality of the expressed GFP-labeled receptor in cells was verified by recording a change of [Ca^2+]i after stimulation with the appropriate receptor agonist.
(§2) 1321N1 astrocytoma cells transfected with the respective plasmid for P2YR-GFP expression plated on coverslips (22 mm diameter) and grown to approximately 80% density were incubated with 2 μM fura 2/AM and 0.02% pluronic acid in Na-HBS buffer (Hepes buffered saline: 145 mM NaCl, 5.4 mM KCl, 1.8 mM CaCl2, 1 mM MgCl2, 25 mM glucose, 20 mM Hepes/Tris pH 7.4) for 30 min at 37° C. The cells were superfused (1 ml/min, 37° C.) with different concentrations of nucleotide in Na-HBS buffer, and the nucleotide-induced change of [Ca^2+]i was measured by detecting the respective emission intensity of fura 2/AM at 510 nm with after 340 nm and 380 nm excitations (Ubl et al., 1998). The average maximal amplitude of the responses and the respective standard errors were calculated from the ratio of the fura 2/AM fluorescence intensities with excitations at 340 nm and 380 nm (only MT-labeled cells were analysed). Microsoft Excel (Microsoft Corp., Redmond, Wash., USA) and SigmaPlot (SPSS Inc., Chicago, Ill., USA) were used to derive the concentration-response curves and EC50 values from the average response amplitudes obtained in at least three independent experiments (Ecke et al., 2006, 2008). Only cells with a clear MT-signal and with the typical calcium response kinetics upon agonist pulse application were included in the data analysis. The GFP-tagged P2Y receptors are suitable for pharmacological and physiological studies, as previously reported (Tulapurkar et al., 2004, 2006; Zylberg et al., 2007).
1321N1 cell lines stably expressing the human P2Y6 receptors were grown as previously described in DMEM (5% FBS, 100 IU/ml penicillin, 100 μg/ml streptomycin, 1× Glutamax, 10 mM Hepes and 0.5 mg/ml G-418) at 37° C. in a humidified atmosphere containing 5% CO2 and 95% air (Gendron et al., 2003).
1321N1 cells (10×10^6 cells grown in 10 cm^2 dishes) were harvested by a brief trypsin/EDTA treatment, suspended in complete culture medium, and washed by centrifugation for 3 min at 100×g before being incubated with 1 μM Fluo 4/AM in 4.5 ml HBSS with Ca^2+ and Mg^2+ (Wisent, St. Bruno, QC) for 25 min at 37° C. Cells were washed by centrifugation (100×g, 3 min), suspended in HBSS containing Ca^2+ and Mg^2+, and incubated for 25 min at 37° C. Cells were washed and suspended in 16 ml of FIBSS containing Ca^+ and Mg^2+. Cell suspension (2 ml) was gently stirred in a quartz cuvette while [Ca^2+]i and monitored on a RF-5301 PC Shimadzu spectrofluorometer with Panormama fluorescence 1.1 software (Man-Tech, Guelph, ON). Excitation wavelengths of 488 nm and emission wavelength of 520 nm were used to measure changes in intracellular Fluo 4 fluorescence intensity (F). At the end of each recording, maximal fluorescence (Fmax) and minimal fluorescence (Fmin) were determined by adding successively 0.1% Triton X-100 and 50 mM EDTA to cell suspensions. The following equation from Grynkiewicz et al. (1985) was used to relate the fluorescence intensity to Ca^2+ levels: [Ca^2+]=Kd×(F−Fmin)/(Fmax−F), wherein Kd is the Ca^+ dissociation constant of the indicator (345 nM). […]

P2Y4-R = target: T2, P2Y4-R (Homo sapiens, UniProt P51582); experiment: [Ca2+]i increase in 1321N1 astrocytoma cells expressing P2Y4-R; assay type: cell-based; settings: n.d.r = no detectable response up to 100 μM
T2 construct: expressed in transfected cells; host or cells: 1321N1 astrocytoma cells
T2 sequence (P51582 whole entry): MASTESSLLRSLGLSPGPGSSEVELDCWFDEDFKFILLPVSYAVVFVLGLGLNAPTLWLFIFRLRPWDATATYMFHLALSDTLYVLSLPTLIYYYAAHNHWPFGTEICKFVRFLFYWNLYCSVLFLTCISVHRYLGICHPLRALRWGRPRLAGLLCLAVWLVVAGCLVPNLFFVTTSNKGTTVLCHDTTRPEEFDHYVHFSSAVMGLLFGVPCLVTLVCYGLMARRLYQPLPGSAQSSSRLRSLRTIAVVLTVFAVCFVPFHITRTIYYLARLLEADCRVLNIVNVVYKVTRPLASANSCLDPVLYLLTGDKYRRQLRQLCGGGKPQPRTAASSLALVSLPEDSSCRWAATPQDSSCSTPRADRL
Protocol: as §1, §2
(§3) In this study, analogues 13-17 were tested for their potency and selectivity at P2Y2,4,6-receptors based on measurements of increases in intracellular calcium concentrations in 1321N1 astrocytoma cells transfected with the respective plasmid, as described in Materials and Methods, and the results are summarized in Table 2.

P2Y2-R [1] = target: T3, P2Y2-R (Homo sapiens, UniProt P41231); experiment: [Ca2+]i increase in 1321N1 astrocytoma cells expressing P2Y2-R; assay type: cell-based; set-up: expressed in transfected cells; host or cells: 1321N1 astrocytoma cells
T3 sequence (P41231 whole entry): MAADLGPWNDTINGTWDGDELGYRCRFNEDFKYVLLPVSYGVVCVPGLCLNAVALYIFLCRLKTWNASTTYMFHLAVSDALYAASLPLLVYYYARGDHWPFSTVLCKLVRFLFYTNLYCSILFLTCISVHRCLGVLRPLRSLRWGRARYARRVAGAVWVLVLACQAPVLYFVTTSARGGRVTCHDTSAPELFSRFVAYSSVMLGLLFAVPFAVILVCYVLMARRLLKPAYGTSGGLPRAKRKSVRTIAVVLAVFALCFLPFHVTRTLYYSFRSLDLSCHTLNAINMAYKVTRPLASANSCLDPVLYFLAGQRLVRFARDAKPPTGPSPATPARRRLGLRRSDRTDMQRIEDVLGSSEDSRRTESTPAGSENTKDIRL
Protocol: as §1, §2, §3

P2Y2-R [2] = target: T3, P2Y2-R; settings: Ginsburg-Shmuel et al., 2010; read-out: EC50 at P2Y2-R (literature); cited from earlier work
physchem = settings: for Rate constant of phosphate ester hydrolysis at pH 1.4: pH 1.4, 37° C., pseudo-first-order
Protocol: All stability experiments were performed in duplicates.
The stability of UDP, 11, 12 and 13A in a buffer solution (pH 1.4) was evaluated by ^31P NMR at 37° C. for monitoring possible dephosphorylation products (the signal of the phosphate hydrolysis products is at ˜0 ppm, while that of the borano phosphate analogues is at ˜85 ppm). NMR spectra were recorded on a Bruker DMX-600 spectrometer with a ^31P NMR probe (isotope frequency of 240 MHz) using 85% H3PO4 as an external reference.
Sodium salts of UDP, 11, 12 and 13A were dissolved in 0.45 ml of KCl/HCl buffer (pH 1.4) and D2O (0.05 ml) was added. The final pH was adjusted to pH 1.4. pH measurements were performed with an Metrohm pH electrode and a Metrohm 827 meter. Spectra were recorded at 15 min, 1 h, or 24 h time intervals at 37° C. For experiments that were several days long, the solution was kept in an oil bath at 37° C. and spectra were recorded at ca. 24 h time intervals. The phosphate ester hydrolysis rate was determined by measuring the change of the integration of one of the phosphates signals of the starting material with time.

P2Y2 receptor = P2Y2 receptor (Rattus norvegicus, UniProt P41232); settings: compared to ATP and UTP; Tulapurkar et al., 2004; cited from earlier work
Chain of P2Y2 receptor (P41232 whole entry): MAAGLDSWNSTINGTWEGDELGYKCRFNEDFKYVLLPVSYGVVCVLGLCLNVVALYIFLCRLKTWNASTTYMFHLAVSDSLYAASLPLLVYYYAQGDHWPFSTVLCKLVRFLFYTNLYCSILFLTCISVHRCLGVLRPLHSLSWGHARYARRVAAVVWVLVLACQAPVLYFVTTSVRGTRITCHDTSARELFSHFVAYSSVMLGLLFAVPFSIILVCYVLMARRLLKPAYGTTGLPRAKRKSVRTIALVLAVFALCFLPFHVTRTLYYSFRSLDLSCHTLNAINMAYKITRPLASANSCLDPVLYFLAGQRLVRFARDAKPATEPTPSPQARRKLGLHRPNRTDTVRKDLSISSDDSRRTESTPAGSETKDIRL

[3] = system: intraocular pressure in normotense rabbits; settings: cited from earlier work
[4] = 1321N1 astrocytoma cells, [Ca2+]i, n.d.r = no detectable response up to 100 μM

Row | SMILES | EC50 (P2Y6-R) | Potencies (EC50) at the P2Y4-R (P2Y4-R) | Potencies (EC50) at the P2Y2-R (P2Y2-R [1]; [4]) | also measured
1 | O=c1ccn([C@@H]2O[C@H](COP(=O)(O)OP(=O)(O)OP(=O)(O)O)[C@@H](O)[C@H]2O)c(=O)[nH]1 [UTP, reference compound] | – | – | – | EC50 (P2Y2-R [2]): 100 nM; EC50 (P2Y4-R; read-out: Potencies (EC50) at the P2Y4-R): 900 nM; EC50 (P2Y2-R [1]; 1321N1 astrocytoma cells, [Ca2+]i, n.d.r = no detectable response up to 100 μM, read-out: Potencies (EC50) at the P2Y2-R): 140 nM
2 | BP(=O)(OCC1OC(n2cc(OC)c(=O)[nH]c2=O)C(O)C1O)OP(=O)(O)O (stereo not drawn) [Analogue 13, 5-methoxyuridine-5′-O-(α-boranodiphosphate)] | – | – | – | Half-life (t1/2) of hydrolysis at pH 1.4 (physchem; buffer, pH 1.4): 16.9 h; Rate constant of phosphate ester hydrolysis at pH 1.4 (physchem): 1.31×10^−5 s^−1
3 | BP(=O)(OC[C@H]1O[C@@H](n2cnc3c(N)ncnc32)[C@H](O)[C@@H]1O)OP(=O)(O)OP(=O)(O)O (stereo partly drawn) [ATP(α-B)] | – | – | – | Response at the P2Y2 receptor (in words, literature) (P2Y2 receptor): very weak response
4 | [BH3-][P+](O)(OC[C@H]1O[C@@H](n2ccc(=O)[nH]c2=O)[C@H](O)[C@@H]1O)OP(=O)(O)O (stereo partly drawn) [Analogue 11, Uridine-5′-O-(α-boranodiphophate), reference compound] | – | – | – | Rate constant of phosphate ester hydrolysis at pH 1.4 (physchem): 1.14×10^−5 s^−1; Half-life in human blood serum: 21 h
5 | [BH3-][P+](O)(OP(=O)(O)OC[C@H]1O[C@@H](n2cc(OC)c(=O)[nH]c2=O)[C@H](O)[C@@H]1O)OP(=O)(O)OC[C@H]1O[C@@H](n2cc(OC)c(=O)[nH]c2=O)[C@H](O)[C@@H]1O [Analogue 17, di-(5-OMe)-uridine 5″5″-P^1,P^3,β-boranotriphosphate] | 200 nM | n.d.r | n.d.r | –
6 | COc1cn([C@@H]2O[C@H](COP(=O)(O)OP(=O)(O)OP(=O)(O)OC[C@H]3O[C@@H](n4cc(OC)c(=O)[nH]c4=O)[C@H](O)[C@@H]3O)[C@@H](O)[C@H]2O)c(=O)[nH]c1=O [Analogue 15, di-(5-OMe)-uridine 5′,5″-P^1,P^3, triphosphate] | > 10000 nM | n.d.r | n.d.r | Activity at the P2Y6-R (in words) (P2Y6-R): least active P2Y6-R agonist; also recorded: weakest potency among the tested nucleotides
7 | CSc1nc(N)c2ncn([C@@H]3O[C@H](COP(=O)(O)OP(=O)(O)C(Cl)(Cl)P(=O)(O)O)[C@@H](O)[C@H]3O)c2n1 [2MeS-adenosine-β,γ-CCl2-5′-triphosphate] | – | – | – | Duration of effect on IOP (literature) [3]: about 5 hours; Reduction of IOP (literature) [3]: 32%; EC50 ([3]; read-out: EC50 of IOP reduction (literature)): 95.5 nM
8 | BP(=O)(OC[C@H]1O[C@@H](n2cc(OC)c(=O)[nH]c2=O)[C@H](O)[C@@H]1O)OP(=O)(O)OP(=O)(O)O (stereo partly drawn) [Analogue 14, 5-methoxyuridine-5′-O-(α-boranotriphosphate)] | – | – | – | Activity at the P2Y6-R (in words) (P2Y6-R): hardly active; Activity at the P2Y2-receptor (in words) (P2Y2-R [1]; 1321N1 cells): completely inactive

Second part, led by results:

Row | EC50 (P2Y6-R) | Potencies (EC50) at the P2Y4-R (P2Y4-R) | Potencies (EC50) at the P2Y2-R (P2Y2-R [1]; [4]) | SMILES | also measured
9 | 20100 ± 700 nM | n.d.r | n.d.r | [BH3-][P+](O)(OC[C@H]1O[C@@H](n2cc(OC)c(=O)[nH]c2=O)[C@H](O)[C@@H]1O)OP(=O)(O)OP(=O)(O)O (single isomer, unassigned) [Analogue 14B, 5-methoxyuridine-5′-O-(α-boranotriphosphate)] | –
10 | 2200 nM | n.d.r | n.d.r | [BH3-][P+](O)(OCC1OC(n2cc(OC)c(=O)[nH]c2=O)C(O)C1O)OP(=O)(O)OP(=O)(O)OCC1OC(n2cc(OC)c(=O)[nH]c2=O)C(O)C1O (single isomer, unassigned) [Analogue 16B, di-(5-OMe)-uridine 5′,5″-P^1,P^3,α-boranotriphosphate] | –
11 | 60 nM | n.d.r | n.d.r | [BH3-][P+](O)(OCC1OC(n2cc(OC)c(=O)[nH]c2=O)C(O)C1O)OP(=O)(O)OP(=O)(O)OCC1OC(n2cc(OC)c(=O)[nH]c2=O)C(O)C1O (single isomer, unassigned) [Analogue 16A, di-(5-OMe)-uridine 5′,5″-P^1,P^3,α-boranotriphosphate] | Less potent than mono-nucleotide counterpart 13A at P2Y6-R (P2Y6-R; ratio of EC50 values): about 9 times
12 | 11200 ± 630 nM | n.d.r | n.d.r | [BH3-][P+](O)(OC[C@H]1O[C@@H](n2cc(OC)c(=O)[nH]c2=O)[C@H](O)[C@@H]1O)OP(=O)(O)OP(=O)(O)O (single isomer, unassigned) [Analogue 14A, 5-methoxyuridine-5′-O-(α-boranotriphosphate)] | –
13 | 4300 nM | n.d.r | n.d.r | [BH3-][P+](O)(OCC1OC(n2cc(OC)c(=O)[nH]c2=O)C(O)C1O)OP(=O)(O)O (single isomer, unassigned) [Analogue 13B, 5-methoxyuridine-5′-O-(α-boranodiphosphate)] | –
